Assay results: patent US11618743B2, “Herbicidal compounds” (SYNGENTA PARTICIPATIONS AG, priority 2017, dated 2023)

What was measured:
Assay in all cases: Post-emergence efficacy, Method A
Type in all cases: in vivo
[1] = test system: Chenopodium album (CHEAL); conditions: Application rate 500 g/Ha, evaluated after 13 days; for Control of weed species after post-emergence application, CHEAL: 100=total damage to plant, 0=no damage
Procedure: (§1) Seeds of a variety of test species were sown in standard soil in pots. After cultivation for 14 days (post-emergence) under controlled conditions in a glasshouse (at 24/16° C., day/night; 14 hours light; 65% humidity), the plants were sprayed with an aqueous spray solution derived from the dissolution of the technical active ingredient formula (I) in a small amount of acetone and a special solvent and emulsifier mixture referred to as IF50 (11.12% Emulsogen EL360 TM+44.44% N-methylpyrrolidone+44.44% Dowanol DPM glycol ether), to create a 50 g/l solution which was then diluted to required concentration using 0.25% or 1% Empicol ESC70 (Sodium lauryl ether sulphate)+1% ammonium sulphate as diluent.
(§2) The test plants were then grown in a glasshouse under controlled conditions (at 24/16° C., day/night; 14 hours light; 65% humidity) and watered twice daily. After 13 days the test was evaluated (100=total damage to plant; 0=no damage to plant).
(§3) Ipomoea hederacea (IPOHE), Euphorbia heterophylla (EPHHL), Chenopodium album (CHEAL), Amaranthus palmeri (AMAPA), Lolium perenne (LOLPE), Digitaria sanguinalis (DIGSA), Eleusine indica (ELEIN), Echinochloa crus-galli (ECHCG), Setaria faberi (SETFA)

[2] = test system: Amaranthus palmeri (AMAPA); conditions: Application rate 500 g/Ha, evaluated after 13 days; for Control of weed species after post-emergence application, AMAPA: 100=total damage to plant, 0=no damage
Procedure: as §1, §2, §3

[3] = test system: Digitaria sanguinalis (DIGSA); conditions: Application rate 500 g/Ha, evaluated after 13 days; for Control of weed species after post-emergence application, DIGSA: 100=total damage to plant, 0=no damage
Procedure: as §1, §2, §3

[4] = test system: Eleusine indica (ELEIN); conditions: Application rate 500 g/Ha, evaluated after 13 days; for Control of weed species after post-emergence application, ELEIN: 100=total damage to plant, 0=no damage
Procedure: as §1, §2, §3

[5] = test system: Euphorbia heterophylla (EPHHL); conditions: Application rate 500 g/Ha, evaluated after 13 days
Procedure: as §1, §2, §3

[6] = test system: Echinochloa crus-galli (ECHCG); conditions: Application rate 500 g/Ha, evaluated after 13 days; for Control of weed species after post-emergence application, ECHCG: 100=total damage to plant, 0=no damage
Procedure: as §1, §2, §3

[7] = test system: Setaria faberi (SETFA); conditions: Application rate 500 g/Ha, evaluated after 13 days; for Control of weed species after post-emergence application, SETFA: 100=total damage to plant, 0=no damage
Procedure: as §1, §2, §3

Row | Structure (SMILES) | Control of weed species CHEAL after post-emergence application (100=total damage to plant; 0=no damage to plant) ([1]; Method A) | Control of weed species AMAPA after post-emergence application (100=total damage to plant; 0=no damage to plant) ([2]; Method A) | Control of weed species DIGSA after post-emergence application (100=total damage to plant; 0=no damage to plant) ([3]; Method A) | Control of weed species ELEIN after post-emergence application (100=total damage to plant; 0=no damage to plant) ([4]; Method A) | Control of weed species EPHHL after post-emergence application (100=total damage to plant; 0=no damage to plant) ([5]; Method A) | Control of weed species ECHCG after post-emergence application (100=total damage to plant; 0=no damage to plant) ([6]; Method A) | Control of weed species SETFA after post-emergence application (100=total damage to plant; 0=no damage to plant) ([7]; Method A) | Control of weed species after post-emergence application, CHEAL [1] | Control of weed species after post-emergence application, AMAPA [2] | Control of weed species after post-emergence application, DIGSA [3] | Control of weed species after post-emergence application, ELEIN [4] | Control of weed species after post-emergence application, EPHHL ([5]; 100=total damage to plant, 0=no damage) | Control of weed species after post-emergence application, ECHCG [6] | Control of weed species after post-emergence application, SETFA [7]
1 | O=C(O)CC[n+]1ccc(-c2ccnc(C(F)(F)F)n2)cn1.O=C([O-])C(F)(F)F [Compound A118] | 80 | 80 | 90 | 70 | 90 | 40 | 70 | – | – | – | – | – | – | –
2 | Nc1cc(-c2cc[n+](CCC(=O)O)nc2)ncn1.O=C([O-])C(F)(F)F [Compound A163] | – | – | – | – | – | – | – | 60 | 100 | 50 | 90 | 50 | 40 | –
3 | CC(C[n+]1ccc(-c2ccncn2)cn1)C(=O)O.O=C([O-])C(F)(F)F (centres unmarked) [Compound A171] | – | – | – | – | – | – | – | 80 | 100 | 60 | 80 | – | 60 | 60
4 | N#Cc1ccc(-c2cc[n+](CCC(=O)O)nc2)nc1.O=C([O-])C(F)(F)F [Compound A176] | – | – | – | – | – | – | – | 30 | 40 | 30 | 70 | – | 30 | 40
5 | O=C([O-])C(F)(F)F.OCC[n+]1ccc(-c2ncccn2)cn1 [Compound A195, 2-(4-pyrimidin-2-ylpyridazin-1-ium-1-yl)ethanol 2,2,2-trifluoroacetate] | – | – | – | – | – | – | – | 60 | – | 20 | 10 | – | 10 | –
6 | N[C@@H](CC[n+]1ccc(-c2ncccn2)cn1)C(=O)O.O=C(O)C(F)(F)F.O=C([O-])C(F)(F)F [Compound A201, [(1S)-1-carboxy-3-(4-pyrimidin-2-ylpyridazin-1-ium-1-yl)propyl]ammonium 2,2,2-trifluoroacetate] | – | – | – | – | – | – | – | – | – | 80 | – | – | 70 | 80
7 | O=C(O)c1ccc(C[n+]2ccc(-c3ncccn3)cn2)cc1.O=C([O-])C(F)(F)F [Compound A228] | – | – | – | – | – | – | – | 60 | 80 | 20 | 10 | – | 10 | 10
8 | COC(=O)c1ccc(C[n+]2ccc(-c3ncccn3)cn2)cc1.O=C([O-])C(F)(F)F [Compound A229] | – | – | – | – | – | – | – | 0 | 10 | 20 | 0 | – | 0 | 10
9 | O=C([O-])C(F)(F)F.O=P(O)(O)CCC[n+]1ccc(-c2ncccn2)cn1 [Compound A233] | – | – | – | – | – | – | – | 100 | 100 | 60 | 50 | – | 60 | 70
